pIC50: −log10 of the molar value.
Tested on: P. falciparum 3D7 (chloroquine-sensitive)
Assay: in vitro growth inhibition assay, P. falciparum 3D7
Format: cell-based
Settings: Plasmodium falciparum, 3D7, read-out: IC50 ± SEM 3D7

SMILES: [C-]#[N+]C(C)(C)C[C@@H]1C[C@H](C)[C@H]2CC[C@H](C)[C@@]3([N+]#[C-])CCC(=C)[C@@H]1[C@H]23 [compound 1, (−)-8,15-diisocyano-11(20)-amphilectene]
- pIC50: 8.92
